Starred links: 1 amine or outer side, 2 acyl side, 3 side chain; linkers in the order of their positions; H or OH if unused. Non-standard residues stand in square brackets, D forms with d. Residues, ends and D or L forms follow the SMILES beside them. Groups on a side chain read outwards from the residue. *: point of attachment. C20 diacid = O=C(O)CCCCCCCCCCCCCCCCCCC(=O)*; αMePhe(2-F) = C[C@](N)(Cc1ccccc1F)C(=O)O; γGlu = O=C(O)[C@H](CCC(=O)[*:2])N[*:1]; αMeF = C[C@](N)(Cc1ccccc1)C(=O)O; αMeL = CC(C)C[C@](C)(N)C(=O)O; AEEA = NCCOCCOCC(=O)O; Ac3c = NC1(C(=O)O)CC1; Aib = CC(C)(N)C(=O)O
Assays:
Human GIP R = biological target: T1, Human GIP R (Homo sapiens, UniProt P48546); assay: cAMP (HTRF) activity in CHO cells stably overexpressing GIP receptor; type: cell-based; conditions: for Human GIP R Rel. A (Relative Activity): EC50 of human GIP / EC50 of compound; for EC50: stable transfected cell cAMP activity, at least 3 independent tests
T1 construct: expressed in transfected cells; host or cells: CHO
T1 sequence (P48546 22-466): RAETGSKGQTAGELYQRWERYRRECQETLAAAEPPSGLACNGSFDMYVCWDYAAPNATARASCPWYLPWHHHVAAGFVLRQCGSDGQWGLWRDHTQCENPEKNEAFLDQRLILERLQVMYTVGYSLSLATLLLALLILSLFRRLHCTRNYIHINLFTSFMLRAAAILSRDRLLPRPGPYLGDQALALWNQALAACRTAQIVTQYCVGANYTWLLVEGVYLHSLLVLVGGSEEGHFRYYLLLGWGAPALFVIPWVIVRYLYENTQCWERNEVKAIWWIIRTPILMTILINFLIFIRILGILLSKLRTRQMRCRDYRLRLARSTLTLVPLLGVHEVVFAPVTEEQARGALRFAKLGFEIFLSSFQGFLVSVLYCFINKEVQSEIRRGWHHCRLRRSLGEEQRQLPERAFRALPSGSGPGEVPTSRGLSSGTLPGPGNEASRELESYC
Description: (§1) By measuring the cAMP signal response levels of the aforementioned cells, the agonistic activity of individual compound towards the corresponding receptor was determined. The intracellular cAMP content was measured using reagent kit available from Cisbio Corp. based on HTRF (homogeneous time-resolved fluorescence) technology.
(§2) The cell fluid was transferred to 10 ml of HBSS for resuspension, and centrifuged at 1000 rpm for 5 minutes at room temperature.
(§3) 10 μL cell suspension was added to each well in the 384 well plate. […] Using the ECHO liquid transfer system, 100 nL of the prepared compound solution was added to the corresponding cell suspensions in the 384 well plate, rotated and shaken at 1000 rpm for 1 minute to mix evenly, and then incubated at room temperature for 60 minutes. 10 μL of detection reagent was added to each well after drug incubation was completed, and incubation was performed in the kit at room temperature for 60 minutes. […] GraphPad Prism 5 plotting software was used to create compound concentration response curves and EC50 (nM) values was calculated.

Human GCG R = biological target: T2, Human GCG R (Homo sapiens, UniProt P47871); assay: cAMP (HTRF) activity in HEK-293 cells stably overexpressing human GCG receptor; type: cell-based; conditions: EC50 of human GCG / EC50 of compound
T2 construct: expressed in transfected cells; host or cells: HEK-293
Description: as §1, §2, §3

RIN-m5F cells = type: cell-based, rat; conditions: for Rel. A (Relative Activity) on RIN-m5F: relative to GLP-1(7-37)
Description: This experiment measured the cAMP level produced by the compound on RIN-mF cells.
Frozen […] cells were placed in a 37° C. constant temperature water bath for rapid thawing and recovery. The cell solution was transferred to 10 ml of HBSS for resuspension, and centrifuged at 1000 rpm for 5 minutes at room temperature.
10 μL cell suspension was added to each well in the 384 well plate. […] Using the ECHO liquid transfer system, 100 nL of the prepared compound solution was added to the corresponding cell suspensions in the 384 well plate, rotated and shaken at 1000 rpm for 1 minute to mix evenly, and then incubated at room temperature for 60 minutes. 10 μL of detection reagent was added to each wells after drug incubation was completed, and incubation was performed for 60 minutes.

3T3-L1 adipocytes = conditions: for Rel. A (Relative Activity) on 3T3-L1 adipocyte: relative to GIP
Description: Mouse 3T3-L1 precursor adipocytes can be induced to differentiate into mature adipocytes. […] After the cells became full and contacted with each other, DMEM differentiation medium containing 20% FBS, 0.5 mM IBMX, 0.4 ug/mL dexamethasone, and 5 ug/mL insulin was used to induce differentiation of 3T3-L1 adipocyte. After 5 days of induction and cultivation, DMEM medium containing […], 4 ug/ml insulin, and 10 uM rosiglitazone was used to continue induction and cultivation for 3 days. Then, DMEM medium containing 10% FBS was used to continue cultivation for 2-3 days to induce mature 3T3-L1 adipocytes.
The cAMP level produced by the compound on 3T3-L1 adipocytes was determined in this experiment. The tested compound solution was diluted step by step according to a concentration gradient of 3 times, to obtain a total of 10 series of concentration solutions. The solutions were added to induced mature 3T3-L1 adipocytes and incubated at room temperature for 60 minutes. 10 μL detection reagent in the kit was added to each well after drug incubation, and incubated at room temperature for another 60 minutes. […] GraphPad Prism 5 plotting software was used to create compound concentration-effect curves and calculation was performed.

[1] = tested on: human primary liver cells; type: cell-based; conditions: for Rel. A (Relative Activity) on human primary liver cells: relative to GCG
Description: The cAMP levels produced by compounds on human primary liver cells were determined in this experiment. Human primary liver cells were purchased from Lonza (cell product number HUCPG).
Frozen human primary liver cells were placed in a 37° C. constant temperature water bath for rapid thawing and recovery. The cell solution was transferred to 10 ml of HBSS for resuspension, and centrifuged at 1000 rpm for 5 minutes at room temperature.
10 μL cell suspension was added to each well in the 384 well plate. […] Using the ECHO liquid transfer system, 100 nL of the prepared compound solution was added to the corresponding cell suspensions in the 384 well plate, rotated and shaken at 1000 rpm for 1 minute to mix evenly, and then incubated at room temperature for 60 minutes. 10 μL of detection reagent was added to each well after drug incubation was completed, and incubation was performed for 60 minutes.

Human GLP-1R = Human GLP-1R (Homo sapiens, UniProt P43220); assay: cAMP (HTRF) activity in HEK-293 cells stably overexpressing human GLP-1 receptor; type: cell-based; parameters: expressed in transfected cells; host or cells: HEK-293; conditions: for Human GLP-1R Rel. A (Relative Activity): EC50 of human GLP-1 (7-37) / EC50 of compound
Description: as §1, §2, §3

Sequence of Human GLP-1R (P43220 24-463): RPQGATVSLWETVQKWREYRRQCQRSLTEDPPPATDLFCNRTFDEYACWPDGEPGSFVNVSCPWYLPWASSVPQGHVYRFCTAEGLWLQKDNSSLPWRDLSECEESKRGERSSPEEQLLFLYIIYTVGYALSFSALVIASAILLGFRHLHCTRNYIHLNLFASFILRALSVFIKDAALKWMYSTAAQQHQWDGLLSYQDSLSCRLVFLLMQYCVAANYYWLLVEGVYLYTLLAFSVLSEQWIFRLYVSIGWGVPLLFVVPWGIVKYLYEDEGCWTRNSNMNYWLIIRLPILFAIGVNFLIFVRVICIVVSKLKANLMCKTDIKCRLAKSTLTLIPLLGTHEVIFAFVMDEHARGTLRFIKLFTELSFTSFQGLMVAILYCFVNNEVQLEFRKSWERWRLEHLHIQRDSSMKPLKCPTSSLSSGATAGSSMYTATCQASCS
T2 sequence (P47871 26-477): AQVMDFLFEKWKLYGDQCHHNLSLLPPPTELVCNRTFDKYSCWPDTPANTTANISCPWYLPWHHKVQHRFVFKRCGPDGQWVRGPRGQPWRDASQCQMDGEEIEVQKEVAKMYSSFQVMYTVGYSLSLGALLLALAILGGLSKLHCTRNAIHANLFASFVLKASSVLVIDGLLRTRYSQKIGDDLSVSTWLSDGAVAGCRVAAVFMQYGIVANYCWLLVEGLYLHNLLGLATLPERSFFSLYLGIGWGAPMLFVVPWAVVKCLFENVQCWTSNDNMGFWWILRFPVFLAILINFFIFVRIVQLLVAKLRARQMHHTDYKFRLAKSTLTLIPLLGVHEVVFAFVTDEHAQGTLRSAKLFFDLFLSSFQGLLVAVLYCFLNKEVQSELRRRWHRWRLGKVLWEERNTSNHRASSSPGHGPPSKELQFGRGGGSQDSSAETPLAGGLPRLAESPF

| Compound | Human GIP R Rel. A (Relative Activity) (Human GIP R) [%] | EC50 (Human GIP R) [nM] | Human GCG R Rel. A (Relative Activity) (Human GCG R) [%] | EC50 (RIN-m5F cells) [nM] | Rel. A (Relative Activity) on RIN-m5F (RIN-m5F cells) [%] | EC50 (3T3-L1 adipocytes) [nM] | Rel. A (Relative Activity) on 3T3-L1 adipocyte (3T3-L1 adipocytes) [%] | EC50 [1] [nM] | Rel. A (Relative Activity) on human primary liver cells [1] [%] | Human GLP-1R Rel. A (Relative Activity) (Human GLP-1R) [%] | EC50 (Human GLP-1R; stable transfected cell cAMP activity, at least 3 independent tests) [nM] |
| --- | --- | --- | --- | --- | --- | --- | --- | --- | --- | --- | --- |
| CC[C@H](C)[C@H](NC(=O)[C@H](Cc1ccccc1)NC(=O)[C@H](C)NC(=O)C(C)(C)NC(=O)[C@H](CCC(N)=O)NC(=O)[C@H](C)NC(=O)[C@H](CCCCNC(=O)COCCOCCNC(=O)COCCOCCNC(=O)CC[C@H](NC(=O)CCCCCCCCCCCCCCCCCCC(=O)O)C(=O)O)NC(=O)[C@H](CCCCN)NC(=O)[C@H](CC(=O)O)NC(=O)[C@H](CC(C)C)NC(=O)[C@](C)(CC(C)C)NC(=O)[C@@H](NC(=O)[C@H](CO)NC(=O)[C@H](Cc1ccc(O)cc1)NC(=O)[C@H](CC(=O)O)NC(=O)[C@H](CO)NC(=O)[C@@H](NC(=O)[C@](C)(Cc1ccccc1)NC(=O)[C@@H](NC(=O)CNC(=O)[C@H](CCC(N)=O)NC(=O)C(C)(C)NC(=O)[C@@H](N)Cc1ccc(O)cc1)[C@@H](C)O)[C@@H](C)O)[C@@H](C)CC)C(=O)N[C@@H](CCC(=O)O)C(=O)N[C@@H](Cc1ccccc1)C(=O)N[C@@H](CC(C)C)C(=O)N[C@@H](CC(C)C)C(=O)N[C@@H](CCC(=O)O)C(=O)NCC(=O)N[C@@H](CCCNC(=N)N)C(=O)N1CCC[C@H]1C(=O)N[C@@H](CO)C(=O)N[C@@H](CO)C(=O)NC(C)(C)C(=O)N[C@@H](Cc1c[nH]cn1)C(=O)N1CCC[C@H]1C(=O)N1CCC[C@H]1C(=O)N1CCC[C@H]1C(=O)N[C@@H](CO)C(N)=O [Compound 37] (H-Y[Aib]QGT[αMeF]TSDYSI[αMeL]LDKK([AEEA-AEEA-γGlu-C20 diacid])AQ[Aib]AFIEFLLEGRPSS[Aib]HPPPS-NH2; N-terminus assumed) | 1206.67 | 0.015 | 69.51 | 0.176 | 586.36 | 2.49 | 152.87 | 1.04 | 373.06 | 157.14 |  |
| CC[C@H](C)[C@H](NC(=O)[C@H](Cc1ccccc1)NC(=O)[C@H](C)NC(=O)C(C)(C)NC(=O)[C@H](CCC(N)=O)NC(=O)[C@H](C)NC(=O)[C@H](CCCCNC(=O)COCCOCCNC(=O)COCCOCCNC(=O)CC[C@H](NC(=O)CCCCCCCCCCCCCCCCCCC(=O)O)C(=O)O)NC(=O)[C@H](CCCCN)NC(=O)[C@H](CC(=O)O)NC(=O)[C@H](CC(C)C)NC(=O)[C@](C)(CC(C)C)NC(=O)[C@@H](NC(=O)[C@H](CO)NC(=O)[C@H](Cc1ccc(O)cc1)NC(=O)[C@H](CC(=O)O)NC(=O)[C@H](CO)NC(=O)[C@@H](NC(=O)[C@](C)(Cc1ccccc1F)NC(=O)[C@@H](NC(=O)CNC(=O)[C@H](CCC(N)=O)NC(=O)C(C)(C)NC(=O)[C@@H](N)Cc1ccc(O)cc1)[C@@H](C)O)[C@@H](C)O)[C@@H](C)CC)C(=O)N[C@@H](CCC(=O)O)C(=O)N[C@@H](Cc1ccc(O)cc1)C(=O)N[C@@H](CC(C)C)C(=O)N[C@@H](CC(C)C)C(=O)N[C@@H](CCC(=O)O)C(=O)N[C@H](C(=O)NCC(=O)N1CCC[C@H]1C(=O)N[C@@H](CO)C(=O)N[C@@H](CO)C(=O)NCC(=O)N[C@@H](CCC(N)=O)C(=O)N1CCC[C@H]1C(=O)N1CCC[C@H]1C(=O)NC1(C(=O)N[C@@H](CO)C(N)=O)CC1)[C@@H](C)O [Compound 34] (H-Y[Aib]QGT[αMePhe(2-F)]TSDYSI[αMeL]LDKK([AEEA-AEEA-γGlu-C20 diacid])AQ[Aib]AFIEYLLETGPSSGQPP[Ac3c]S-NH2; N-terminus assumed) | 3620.00 | 0.005 | 150.00 | 0.879 | 117.41 | 2.3 | 165.52 | 0.537 | 724.58 | 191.30 | 0.023 |
| CC[C@H](C)[C@H](NC(=O)[C@H](Cc1ccccc1)NC(=O)[C@H](C)NC(=O)C(C)(C)NC(=O)[C@H](CCC(N)=O)NC(=O)[C@H](C)NC(=O)[C@H](CCCCNC(=O)COCCOCCNC(=O)COCCOCCNC(=O)CC[C@H](NC(=O)CCCCCCCCCCCCCCCCCCC(=O)O)C(=O)O)NC(=O)[C@H](CCCCN)NC(=O)[C@H](CC(=O)O)NC(=O)[C@H](CC(C)C)NC(=O)[C@](C)(CC(C)C)NC(=O)[C@@H](NC(=O)[C@H](CO)NC(=O)[C@H](Cc1ccc(O)cc1)NC(=O)[C@H](CC(=O)O)NC(=O)[C@H](CO)NC(=O)[C@@H](NC(=O)[C@](C)(Cc1ccccc1F)NC(=O)[C@@H](NC(=O)CNC(=O)[C@H](CCC(N)=O)NC(=O)C(C)(C)NC(=O)[C@@H](N)Cc1ccc(O)cc1)[C@@H](C)O)[C@@H](C)O)[C@@H](C)CC)C(=O)N[C@@H](CCC(=O)O)C(=O)N[C@@H](Cc1ccccc1)C(=O)N[C@@H](CC(C)C)C(=O)N[C@@H](CC(C)C)C(=O)N[C@@H](CCC(=O)O)C(=O)N[C@H](C(=O)N[C@@H](CCCNC(=N)N)C(=O)N1CCC[C@H]1C(=O)N[C@@H](CO)C(=O)N[C@@H](CO)C(=O)NC(C)(C)C(=O)N[C@@H](Cc1c[nH]cn1)C(=O)N1CCC[C@H]1C(=O)N1CCC[C@H]1C(=O)N1CCC[C@H]1C(=O)N[C@@H](CO)C(N)=O)[C@@H](C)O [Compound 39] (H-Y[Aib]QGT[αMePhe(2-F)]TSDYSI[αMeL]LDKK([AEEA-AEEA-γGlu-C20 diacid])AQ[Aib]AFIEFLLETRPSS[Aib]HPPPS-NH2) | 1206.67 | 0.015 | 37.25 | 0.843 | 122.42 | 2.05 | 185.83 | 2.03 | 191.77 | 56.41 |  |

Reference: US20250129135A1, “Multi-Agonist and Use Thereof” (priority 2021, published 2025)
